One experiment addresses IRAK4 enzyme (Homo sapiens (Human), UniProt Q9NWZ3). Put plainly: biochemical. The conditions noted are these: IRAK4 enzyme, TR-FRET, 500 μM ATP. Type of experiment: biochemical. (In general: Time-resolved FRET reads energy transfer from a long-lived donor to a nearby acceptor.)
For a further experiment, the system named is TNFα. Briefly: cells. Type of experiment: cell-based, human. The note with it: Homo sapiens, Monocyte, LPS-stimulated human monocytes, TNFα by TR-FRET; read-out: EC50 TNF.

Drawing on patent publication US10336762B2 (priority 2017, dated 2019), this text covers IC50 and EC50 for 24 compounds.

The term IC50 denotes the concentration needed to halve the response being measured. Higher therefore signals a need for much substance. As a reminder, the EC50 is the concentration at which the effect is half-maximal.

Chain of IRAK4 enzyme (Q9NWZ3 whole entry): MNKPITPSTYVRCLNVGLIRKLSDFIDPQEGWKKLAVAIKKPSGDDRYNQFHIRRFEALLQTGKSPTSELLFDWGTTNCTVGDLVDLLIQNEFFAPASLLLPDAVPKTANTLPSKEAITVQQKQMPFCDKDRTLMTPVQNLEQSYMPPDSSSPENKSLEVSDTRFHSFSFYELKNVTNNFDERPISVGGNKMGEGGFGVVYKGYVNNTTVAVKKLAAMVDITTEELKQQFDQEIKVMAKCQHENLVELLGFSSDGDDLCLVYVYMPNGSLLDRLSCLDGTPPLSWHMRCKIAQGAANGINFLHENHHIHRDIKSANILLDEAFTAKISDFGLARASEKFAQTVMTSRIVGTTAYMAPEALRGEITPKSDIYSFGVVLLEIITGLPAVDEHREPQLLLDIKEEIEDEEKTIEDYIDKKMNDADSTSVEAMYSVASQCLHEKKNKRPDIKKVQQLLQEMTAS

On to `Cn1ccnc1CNC(=O)c1cnc(-c2ccc3cc(C#N)cnn23)cc1NC12CCC(O)(CC1)CC2` [Example 928, 6-(3-cyanopyrrolo[1,2-b]pyridazin-7-yl)-4-((4-hydroxybicyclo[2.2.2]octan-1-yl)amino)-N-((1-methyl-1H-imidazol-2-yl)methyl)nicotinamide], for which, at IRAK4 enzyme, the IC50 is 1 nM. Also, the EC50 in the experiment on TNFα came to 71 nM.
For `Cn1cnc(CNC(=O)c2cnc(-c3ccc4cc(C#N)cnn34)cc2NC23CCC(O)(CC2)CC3)c1` [Example 929, 6-(3-cyanopyrrolo[1,2-b]pyridazin-7-yl)-4-((4-hydroxybicyclo[2.2.2]octan-1-yl)amino)-N-((1-methyl-1H-imidazol-4-yl)methyl)nicotinamide], in that order: 1 nM and 126 nM.
For `N#Cc1cnn2c(-c3cc(NC45CCC(O)(CC4)CC5)c(C(=O)NCc4ccccn4)cn3)ccc2c1` [Example 930, 6-(3-cyanopyrrolo[1,2-b]pyridazin-7-yl)-4-((4-hydroxybicyclo[2.2.2]octan-1-yl)amino)-N-(pyridin-2-ylmethyl)nicotinamide], in that order: 2 nM and 147 nM.
Compound `N#Cc1cnn2c(-c3cc(NC45CCC(O)(CC4)CC5)c(C(=O)NCc4cccnc4)cn3)ccc2c1` [Example 931, 6-(3-cyanopyrrolo[1,2-b]pyridazin-7-yl)-4-((4-hydroxybicyclo[2.2.2]octan-1-yl)amino)-N-(pyridin-3-ylmethyl) nicotinamide] came in with a 50% inhibitory concentration (IC50) against IRAK4 enzyme of 3 nM. The EC50 in the experiment with TNFα worked out at 163 nM.
As to `N#Cc1cnn2c(-c3cc(NC45CCC(O)(CC4)CC5)c(C(=O)NCc4ccncc4)cn3)ccc2c1` [Example 932, 6-(3-cyanopyrrolo[1,2-b]pyridazin-7-yl)-4-((4-hydroxybicyclo[2.2.2]octan-1-yl)amino)-N-(pyridin-4-ylmethyl) nicotinamide], at IRAK4 enzyme, 3 nM corresponded to half-maximal inhibition (IC50). Also, the EC50 in the experiment on TNFα amounted to 168 nM.
On the same counts, the results for `N#Cc1cnn2c(-c3cc(NC45CCC(O)(CC4)CC5)c(C(=O)NCc4ncccn4)cn3)ccc2c1` [Example 933, 6-(3-cyanopyrrolo[1,2-b]pyridazin-7-yl)-4-((4-hydroxybicyclo[2.2.2]octan-1-yl)amino)-N-(pyrimidin-2-ylmethyl)nicotinamide] are 4 nM and 269 nM.
On the same counts, the results for `Cn1nccc1CNC(=O)c1cnc(-c2ccc3cc(C#N)cnn23)cc1NC12CCC(O)(CC1)CC2` [Example 934, 6-(3-cyanopyrrolo[1,2-b]pyridazin-7-yl)-4-((4-hydroxybicyclo[2.2.2]octan-1-yl)amino)-N-((1-methyl-1H-pyrazol-5-yl)methyl)nicotinamide] are 3 nM and 271 nM.
Consider `Cn1ccc(CNC(=O)c2cnc(-c3ccc4cc(C#N)cnn34)cc2NC23CCC(O)(CC2)CC3)n1` [Example 935, 6-(3-cyanopyrrolo[1,2-b]pyridazin-7-yl)-4-((4-hydroxybicyclo[2.2.2]octan-1-yl)amino)-N-((1-methyl-1H-pyrazol-3-yl)methyl)nicotinamide], for which the IC50 against IRAK4 enzyme came to 2 nM. Besides, the EC50 in the experiment on TNFα was 153 nM.
On the same counts, the results for `CC(C)(O)[C@H](F)CNC(=O)c1cnc(-c2ccc3cc(C#N)cnn23)cc1-n1cc(-c2cnc(N)cn2)cn1` [Example 936, (R)-4-(4-(5-aminopyrazin-2-yl)-1H-pyrazol-1-yl)-6-(3-cyanopyrrolo[1,2-b]pyridazin-7-yl)-N-(2-fluoro-3-hydroxy-3-methylbutyl) nicotinamide] are 147 nM and > 10000 nM.
On to `CC(C)(O)[C@H](F)CNC(=O)c1cnc(-c2ccc3cc(C#N)cnn23)cc1N[C@H]1C[C@H](CNC(=O)C23CC(C2)C3)C1` [Example 937, 4-(((1r,3R)-3-((bicyclo[1.1.1]pentane-1-carboxamido)methyl)cyclobutyl)amino)-6-(3-cyanopyrrolo[1,2-b]pyridazin-7-yl)-N-((R)-2-fluoro-3-hydroxy-3-methylbutyl)nicotinamide], for which, at IRAK4 enzyme, it took 2 nM to reach half-maximal inhibition (IC50). Moreover, the EC50 in the experiment on TNFα was determined as 133 nM.
`CC(C)C(=O)NC[C@H]1C[C@H](Nc2cc(-c3ccc4cc(C#N)cnn34)ncc2C(=O)NC[C@@H](F)C(C)(C)O)C1` [Example 938, 6-(3-cyanopyrrolo[1,2-b]pyridazin-7-yl)-N-((R)-2-fluoro-3-hydroxy-3-methylbutyl)-4-(((1r,3R)-3-(isobutyramidomethyl)cyclobutyl)amino) nicotinamide]: at IRAK4 enzyme, the 50% inhibitory concentration (IC50) is 1 nM. In addition, in the experiment on TNFα, the EC50 is 68 nM.
On the same counts, the results for `CC(C)(O)[C@H](F)CNC(=O)c1cnc(-c2ccc3cc(C#N)cnn23)cc1-n1cc(-c2ccc(N)cn2)cn1` [Example 939, (R)-4-(4-(5-aminopyridin-2-yl)-1H-pyrazol-1-yl)-6-(3-cyanopyrrolo[1,2-b]pyridazin-7-yl)-N-(2-fluoro-3-hydroxy-3-methyl-butyl)nicotinamide] are 642 nM and > 10000 nM.
On the same counts, the results for `CC(C)(O)[C@H](F)CNC(=O)c1cnc(-c2ccc3cc(C#N)cnn23)cc1N[C@H]1C[C@H](CNC(=O)C2CC(F)(F)C2)C1` [Example 940, 6-(3-cyanopyrrolo[1,2-b]pyridazin-7-yl)-4-(((1r,3R)-3-((3,3-difluorocyclobutane-1-carboxamido)methyl)cyclobutyl)amino)-N-((R)-2-fluoro-3-hydroxy-3-methylbutyl)nicotinamide] are < 1 nM and 44 nM.
Consider `CC(C)(O)[C@H](F)CNC(=O)c1cnc(-c2ccc3cc(C#N)cnn23)cc1N[C@H]1C[C@H](CNC(=O)C2CC2F)C1` (stereo partly drawn) [Example 941, 6-(3-cyanopyrrolo[1,2-b]pyridazin-7-yl)-N-((R)-2-fluoro-3-hydroxy-3-methylbutyl)-4-(((1R,3R)-3-(((1R,2R)-2-fluorocyclo-propane-1-carboxamido)methyl)cyclobutyl)amino) nicotinamide], for which the 50% inhibitory concentration (IC50) against IRAK4 enzyme is < 1 nM. In addition, the EC50 with TNFα is 19 nM.
On the same counts, the results for `C[C@H](NC(=O)c1cnc(-c2ccc3cc(C#N)cnn23)cc1NC12CCC(O)(CC1)CC2)C(=O)N1CC(F)(F)C1` [Example 942, (S)-6-(3-cyanopyrrolo[1,2-b]pyridazin-7-yl)-N-(1-(3,3-difluoroazetidin-1-yl)-1-oxopropan-2-yl)-4-((4-hydroxybicyclo[2.2.2]octan-1-yl)amino) nicotinamide] are 8 nM and 587 nM.
For `C[C@H](NC(=O)c1cnc(-c2ccc3cc(C#N)cnn23)cc1NC12CCC(O)(CC1)CC2)C(=O)N1CCOCC1` [Example 943, (S)-6-(3-cyano-pyrrolo[1,2-b]pyridazin-7-yl)-4-((4-hydroxy-bicyclo[2.2.2]octan-1-yl)amino)-N-(1-morpholino-1-oxopropan-2-yl) nicotinamide], in that order: 35 nM and 836 nM.
On the same counts, the results for `N#Cc1cnn2c(-c3cc(NC45CCC(O)(CC4)CC5)c(C(=O)NCC(=O)N4CCC(O)C4)cn3)ccc2c1` [Example 944, (S)-6-(3-cyano-pyrrolo[1,2-b]pyridazin-7-yl)-4-((4-hydroxy-bicyclo[2.2.2]octan-1-yl)amino)-N-(2-(3-hydroxypyrrolidin-1-yl)-2-oxoethyl) nicotinamide] are < 1 nM and 209 nM.
`CNC(=O)[C@H](F)CNC(=O)c1cnc(-c2ccc3cc(C#N)cnn23)cc1NC12CCC(O)(CC1)CC2` [Example 945, (R)-6-(3-cyanopyrrolo[1,2-b]pyridazin-7-yl)-N-(2-fluoro-3-(methylamino)-3-oxopropyl)-4-((4-hydroxybicyclo[2.2.2]octan-1-yl)amino) nicotinamide] gave an IC50 at IRAK4 enzyme of 1 nM. The EC50 with TNFα is 116 nM.
On the same counts, the results for `CN(C)C(=O)[C@H](F)CNC(=O)c1cnc(-c2ccc3cc(C#N)cnn23)cc1NC12CCC(O)(CC1)CC2` [Example 946, (R)-6-(3-cyanopyrrolo[1,2-b]pyridazin-7-yl)-N-(3-(dimethylamino)-2-fluoro-3-oxopropyl)-4-((4-hydroxybicyclo[2.2.2]octan-1-yl)amino) nicotinamide] are 1 nM and 120 nM.
For `N#Cc1cnn2c(-c3cc(NC45CCC(O)(CC4)CC5)c(C(=O)NC[C@@H](F)C(=O)N4CC(F)(F)C4)cn3)ccc2c1` [Example 947, (R)-6-(3-cyanopyrrolo[1,2-b]pyridazin-7-yl)-N-(3-(3,3-difluoroazetidin-1-yl)-2-fluoro-3-oxopropyl)-4-((4-hydroxybicyclo[2.2.2]octan-1-yl)amino) nicotinamide], in that order: < 1 nM and 207 nM.
On the same counts, the results for `CN1CCN(C(=O)[C@H](F)CNC(=O)c2cnc(-c3ccc4cc(C#N)cnn34)cc2NC23CCC(O)(CC2)CC3)CC1` [Example 948, (R)-6-(3-cyanopyrrolo[1,2-b]pyridazin-7-yl)-N-(2-fluoro-3-(4-methylpiperazin-1-yl)-3-oxopropyl)-4-((4-hydroxybicyclo[2.2.2]octan-1-yl)amino) nicotinamide] are 3 nM and 282 nM.
For `COC(=O)C1(NC(=O)c2cnc(-c3ccc4cc(C#N)cnn34)cc2NC23CCC(O)(CC2)CC3)CC1` [Example 949, methyl 1-(6-(3-cyano-pyrrolo[1,2-b]pyridazin-7-yl)-4-((4-hydroxy-bicyclo[2.2.2]octan-1-yl)amino)nicotinamido) cyclopropane-1-carboxylate], half-maximal inhibition on IRAK4 enzyme (IC50) required 1 nM. The EC50 with TNFα stood at 62 nM.
For `CC1(NC(=O)c2cnc(-c3ccc4cc(C#N)cnn34)cc2NC23CCC(O)(CC2)CC3)CC1` [Example 950, 6-(3-cyanopyrrolo[1,2-b]pyridazin-7-yl)-4-((4-hydroxybicyclo[2.2.2]octan-1-yl)amino)-N-(1-methylcyclopropyl) nicotinamide], in that order: 1 nM and 70 nM.
On the same counts, the results for `N#Cc1cnn2c(-c3cc(NC45CCC(O)(CC4)CC5)c(C(=O)NC4(C(F)F)CC4)cn3)ccc2c1` [Example 951, 6-(3-cyanopyrrolo[1,2-b]pyridazin-7-yl)-N-(1-(difluoromethyl)cyclopropyl)-4-((4-hydroxybicyclo[2.2.2]octan-1-yl)amino) nicotinamide] are 2 nM and 159 nM.
